Laboratory results as given in the supplement of paper PMC10307832.

Tests used:
Assay in all cases: relative viability (nuclei count vs DMSO), 5 days (fraction); higher = more cells survive
[1] = compound: CC1=C(C=C(C=C1)NC(=O)C2=CC(=CC=C2)C(C)(C)C#N)NC3=CC4=C(C=C3)N=CN(C4=O)C [AZ628] + Cc1nc(Nc2ncc(C(=O)Nc3c(C)cccc3Cl)s2)cc(N2CCN(CCO)CC2)n1 [Dasatinib] (partner 0.075 µM)
Method in brief: (§1)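 Relative viability was taken as the ratio of nuclei in treated wells to nuclei in vehicle wells. Lung cancer cell lines in 1536-well plates received compounds by pin tool one day after seeding, either one drug alone or a fixed anchor-drug dose plus five library-drug doses (not always all listed) in √10 steps. Nuclei were counted on 4× images after 5 days of treatment, and values are medians of duplicate plates.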

[2] = compound: CC1=C(C=C(C=C1)NC(=O)C2=CC(=CC=C2)C(C)(C)C#N)NC3=CC4=C(C=C3)N=CN(C4=O)C [AZ628] + O=C(CCCCCCC(=O)Nc1ccccc1)NO [Vorinostat] (partner 1 µM)
Method in brief: as §1

[3] = compound: CC1=C(C=C(C=C1)NC(=O)C2=CC(=CC=C2)C(C)(C)C#N)NC3=CC4=C(C=C3)N=CN(C4=O)C [AZ628] + O=C(c1cc(Cc2n[nH]c(=O)c3ccccc23)ccc1F)N1CCN(C(=O)C2CC2)CC1 [Olaparib] (partner 8 µM)
Method in brief: as §1

[4] = compound: C[As](C)SC[C@H](NC(=O)CC[C@H](N)C(=O)O)C(=O)NCC(=O)O [Darinaparsin] + Cc1cc(Nc2cc(N3CCN(C)CC3)nc(Sc3ccc(NC(=O)C4CC4)cc3)n2)n[nH]1 [Tozasertib] (partner 0.1 µM)
Method in brief: as §1

Q: How did the relative viability ([1]; first compound 0.08 µM) turn out when LCLC-97TM1 was run?
A: 0.769

Q: And the relative viability ([1]; first compound 0.253 µM)?
A: 0.791

Q: What about the relative viability ([1]; first compound 0.8 µM) of the same cell line?
A: 0.508

Q: And the relative viability ([1]; first compound 2.53 µM)?
A: 0.477

Q: What about the relative viability ([1]; first compound 8 µM) of the same cell line?
A: 0.168

Q: And the relative viability ([2]; first compound 0.08 µM)?
A: 1.03

Q: And the relative viability ([2]; first compound 0.253 µM)?
A: 0.729

Q: What about the relative viability ([2]; first compound 0.8 µM) of the same cell line?
A: 0.82

Q: And the relative viability ([2]; first compound 2.53 µM)?
A: 0.756

Q: And the relative viability ([2]; first compound 8 µM)?
A: 0.13

Q: And the relative viability ([3]; first compound 0.08 µM)?
A: 0.517

Q: And the relative viability ([3]; first compound 0.253 µM)?
A: 0.371

Q: What about the relative viability ([3]; first compound 0.8 µM) of the same cell line?
A: 0.356

Q: And the relative viability ([3]; first compound 2.53 µM)?
A: 0.289

Q: What about the relative viability ([3]; first compound 8 µM) of the same cell line?
A: 0.202

Q: And the relative viability ([4]; first compound 0.08 µM)?
A: 0.215

Q: And the relative viability ([4]; first compound 0.8 µM)?
A: 0.199

Q: What about the relative viability ([4]; first compound 2.53 µM) of the same cell line?
A: 0.194

Q: What about the relative viability ([4]; first compound 8 µM) of the same cell line?
A: 0.197
